Reference: ChEMBL document CHEMBL1201862, “PubChem BioAssay data set” (2004)
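Method: 48-hour compound exposure of cells in 96-well plates, five concentrations, linear interpolation of endpoints. GI50 marks 50% less growth.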 Calls of active or inactive are those of the source. Rule as the data show it: active = GI50 up to about 1.1 µM and inactive = higher. Where a SMILES comes first, the peptide text is derived from it. [ ]: non-standard residue; d: D form. Phe(F5) = N[CH](Cc1c(F)c(F)c(F)c(F)c1F)C(=O)O

How the values were obtained:
Experiment in all cases: NCI-60 cell line screen, 48 h
DLD-1 = test system: DLD-1
KM-20L2 = test system: KM-20L2
LXFL 529 = test system: LXFL 529
M19-MEL = test system: M19-MEL
SNB-78 = test system: SNB-78
XF498 = test system: XF498
DMS-273 = test system: DMS-273
HOP-18 = test system: HOP-18
RXF 631 = test system: RXF 631

Compound | GI50 (DLD-1) | GI50 (KM-20L2) | GI50 (LXFL 529) | GI50 (M19-MEL) | GI50 (SNB-78) | GI50 (XF498) | GI50 (DMS-273) | GI50 (HOP-18) | GI50 (RXF 631)
COc1ccc(/C=C2/C(=O)N(C(=O)c3ccc(Cl)cc3)N=C2C)cc1OC | > 100 µM (inactive) | > 100 µM (inactive) | > 100 µM (inactive) | > 100 µM (inactive) | > 100 µM (inactive) | > 100 µM (inactive) | – | – | –
CC(=O)O.CN1CCN(CN2C(=O)C3C4C=CC(C3C2=O)C2C3C(=O)N(CN5CCN(C)CC5)C(=O)C3C42)CC1 (configuration not stated) | 19.1 µM (inactive) | 20.3 µM (inactive) | 18.1 µM (inactive) | – | – | – | – | – | –
COc1ccc(S(=O)(=O)N(C)CC(=O)O)cc1 | > 100 µM (inactive) | > 100 µM (inactive) | > 100 µM (inactive) | > 100 µM (inactive) | – | > 100 µM (inactive) | > 100 µM (inactive) | > 100 µM (inactive) | > 100 µM (inactive)
Cc1ccc(C(=O)/C=C/c2ccccc2O)c(C)c1 | > 100 µM (inactive) | > 100 µM (inactive) | > 100 µM (inactive) | 1.35 µM (inactive) | > 100 µM (inactive) | – | > 100 µM (inactive) | – | –
COc1ccccc1/C=N/N=C(\N)NO | 23.8 µM (inactive) | – | 3.3 µM (inactive) | 19.8 µM (inactive) | > 100 µM (inactive) | – | – | 48.9 µM (inactive) | –
O=C1Nc2ccccc2C1(O)C/C(=N/O)c1ccc2ccccc2c1 (configuration not stated) | > 100 µM (inactive) | > 100 µM (inactive) | 91.2 µM (inactive) | 45.5 µM (inactive) | 60.1 µM (inactive) | 93.3 µM (inactive) | – | > 100 µM (inactive) | 29.7 µM (inactive)
CN(c1ccccc1)C(c1ccccc1)C(O)c1ccccc1 (configuration not stated) | 23.9 µM (inactive) | 19.4 µM (inactive) | 21 µM (inactive) | 23.1 µM (inactive) | 22.6 µM (inactive) | – | 18.7 µM (inactive) | 14.9 µM (inactive) | 18.8 µM (inactive)
c1ccc2c(c1)[Se]c1ccccc1[Se]2 | 53.8 µM (inactive) | > 100 µM (inactive) | 61.4 µM (inactive) | > 100 µM (inactive) | 30.5 µM (inactive) | > 100 µM (inactive) | > 100 µM (inactive) | 4.92 µM (inactive) | –
Cc1cc(NC(=O)C2C3C=CC(O3)C2C(=O)O)no1 (configuration not stated) | 24 µM (inactive) | 13.7 µM (inactive) | 20.4 µM (inactive) | 28.1 µM (inactive) | > 100 µM (inactive) | > 100 µM (inactive) | 16.8 µM (inactive) | > 100 µM (inactive) | 80.5 µM (inactive)
CCc1cc(CCC(=O)Nc2ccccc2[N+](=O)[O-])nc(S)n1 | > 100 µM (inactive) | > 100 µM (inactive) | > 100 µM (inactive) | > 100 µM (inactive) | > 100 µM (inactive) | – | – | > 100 µM (inactive) | > 100 µM (inactive)
Cc1ccc(S(=O)(=O)OC2CC=CC2)cc1 | > 100 µM (inactive) | > 100 µM (inactive) | > 100 µM (inactive) | > 100 µM (inactive) | > 100 µM (inactive) | > 100 µM (inactive) | > 100 µM (inactive) | > 100 µM (inactive) | –
CCOC(=O)C(C)(NC(=O)c1ccc(NCc2ccc3nc(NC(=O)c4ccccc4)nc(NC(=O)c4ccccc4)c3c2)cc1)C(=O)OCC | 15.6 µM (inactive) | 18.4 µM (inactive) | – | 8.93 µM (inactive) | 9.23 µM (inactive) | – | 9.23 µM (inactive) | 37.8 µM (inactive) | 12.2 µM (inactive)
CC(C)c1cc2c(O)c(c1)Cc1cc(C(C)C)cc(c1O)Cc1cc(C(C)C)cc(c1O)Cc1cc(C(C)C)cc(c1O)C2 | > 100 µM (inactive) | > 100 µM (inactive) | – | > 100 µM (inactive) | > 100 µM (inactive) | > 100 µM (inactive) | > 100 µM (inactive) | > 100 µM (inactive) | –
C=CCC1(C(=O)OC(C)(C)C)C(OC)=C(C(=O)OC(C)(C)C)C2C1C(C(=O)OC(C)(C)C)=C(OC)C2(CC=C)C(=O)OC(C)(C)C (configuration not stated) | > 100 µM (inactive) | – | – | > 100 µM (inactive) | – | > 100 µM (inactive) | – | > 100 µM (inactive) | –
COc1cc(C2C(C(=O)O)=C(C)Oc3cc4c(cc32)OCO4)cc(OC)c1OC (configuration not stated) | 29 µM (inactive) | 32.4 µM (inactive) | – | 30.8 µM (inactive) | 50.4 µM (inactive) | 42.2 µM (inactive) | 13.7 µM (inactive) | 28.8 µM (inactive) | 36.1 µM (inactive)
CC(O)CN1C(=O)NC(Cc2ccccc2)C1=O (configuration not stated) | > 100 µM (inactive) | > 100 µM (inactive) | > 100 µM (inactive) | – | > 100 µM (inactive) | > 100 µM (inactive) | > 100 µM (inactive) | > 100 µM (inactive) | –
Cc1cc2c(c(C(N)=O)c1C)-c1ccccc1C2=O | > 100 µM (inactive) | > 100 µM (inactive) | > 100 µM (inactive) | > 100 µM (inactive) | > 100 µM (inactive) | – | > 100 µM (inactive) | > 100 µM (inactive) | > 100 µM (inactive)
COc1ccccc1N1C(=O)/C(=C/c2ccc(N(CCC#N)CCC#N)cc2C)N=C1c1cc([N+](=O)[O-])ccc1Cl | – | > 100 µM (inactive) | > 100 µM (inactive) | 24.2 µM (inactive) | > 100 µM (inactive) | > 100 µM (inactive) | > 100 µM (inactive) | > 100 µM (inactive) | –
CC(=O)Nc1cc(N(CCOS(C)(=O)=O)CCOS(C)(=O)=O)ccc1N=O | > 100 µM (inactive) | > 100 µM (inactive) | > 100 µM (inactive) | > 100 µM (inactive) | – | > 100 µM (inactive) | > 100 µM (inactive) | – | –
O=C(CCn1[nH]c(=O)c(Cl)c(Cl)c1=O)NO | > 100 µM (inactive) | > 100 µM (inactive) | > 100 µM (inactive) | > 100 µM (inactive) | – | > 100 µM (inactive) | > 100 µM (inactive) | > 100 µM (inactive) | –
CCN(CC)CCNc1c2ccccc2nc2cccc([N+](=O)[O-])c12 | 0.0225 µM (active) | 0.0303 µM (active) | 0.0211 µM (active) | 0.0352 µM (active) | 0.0993 µM (active) | 0.0193 µM (active) | 0.0358 µM (active) | – | 0.0317 µM (active)
OCCCOC(c1ccccc1)(c1ccccc1)c1ccccc1 | 60.1 µM (inactive) | > 100 µM (inactive) | > 100 µM (inactive) | > 100 µM (inactive) | 38.9 µM (inactive) | > 100 µM (inactive) | > 100 µM (inactive) | – | > 100 µM (inactive)
COc1ccc(OCC(=O)O)c(C(=O)CCC(=O)O)c1 | > 100 µM (inactive) | – | > 100 µM (inactive) | > 100 µM (inactive) | > 100 µM (inactive) | > 100 µM (inactive) | > 100 µM (inactive) | – | > 100 µM (inactive)
COc1cccc(SSc2cccc(OC)c2C(=O)O)c1C(=O)O | > 100 µM (inactive) | > 100 µM (inactive) | > 100 µM (inactive) | > 100 µM (inactive) | > 100 µM (inactive) | > 100 µM (inactive) | > 100 µM (inactive) | > 100 µM (inactive) | > 100 µM (inactive)
CCC(Oc1ccc(OC)c2ccccc(=O)c12)C(=O)O (configuration not stated) | – | – | > 100 µM (inactive) | > 100 µM (inactive) | > 100 µM (inactive) | – | > 100 µM (inactive) | – | > 100 µM (inactive)
COC(=O)C(CC(C)C)NC(=O)C(Cc1c[nH]cn1)NC(=O)CNC(=O)C(NC(=O)C(C)NC(=O)C(Cc1c[nH]c2ccccc12)NC(=O)C(CCC(=O)O)NC(=O)C(N)Cc1c(F)c(F)c(F)c(F)c1F)C(C)C (configuration not stated) (H-[Phe(F5)]EWAVGHL-OMe; configuration not given here) | > 100 µM (inactive) | > 100 µM (inactive) | > 100 µM (inactive) | > 100 µM (inactive) | > 100 µM (inactive) | > 100 µM (inactive) | > 100 µM (inactive) | > 100 µM (inactive) | –
